Here are results for eight compounds from ChEMBL document CHEMBL2384978, “The opposite effect of isotype-selective monoamine oxidase inhibitors on adipogenesis in human bone marrow mesenchymal stem cells” (2013).

Each structure is given as a SMILES string. The source made the active and inactive calls. The calls are words filed in the database; no cut-off is given here.

Common to all, as to type: functional
Assay [1] is described as follows: Induction of adipogenesis in human bone marrow MSC assessed as formation of intracellular lipid droplets at 10 uM after 15 days by oil red O staining in IDX condition relative to control.
The subject of assay [2] is MSC. The experiment in a line: Induction of adipogenesis in human bone marrow MSC assessed as adiponectin production at 30 uM after 14 days by ELISA relative to control. A general note: ELISA stands for enzyme-linked immunosorbent assay.
The subject of assay [3] is MSC. Put plainly: Induction of SSAO-mediated adipogenesis in human bone marrow MSC assessed as adiponectin level at 0.1 to 1 mM after 14 days by ELISA.
Assay [4] deals with MSC. The experiment in a line: Induction of adipogenesis in human bone marrow MSC assessed as AOC2 up-regulation by RT-PCR analysis.
Assay [5] has as its system MSC. Put plainly: Induction of adipogenesis in human bone marrow MSC assessed as MAO-B up-regulation by RT-PCR analysis.
The test system of assay [6] is MSC. The experiment in a line: Induction of adipogenesis in human bone marrow MSC assessed as AOC3 up-regulation by RT-PCR analysis.
Assay [7] deals with MSC. Put plainly: Induction of adipogenesis in human bone marrow MSC assessed as MAO-A up-regulation by RT-PCR analysis.
Assay [8] deals with MSC. Put plainly: Induction of adipogenesis in human bone marrow MSC assessed as adiponectin up-regulation by RT-PCR analysis.
The subject of assay [9] is MSC. The experiment in a line: Induction of adipogenesis in human bone marrow MSC assessed as PPARgamma up-regulation by RT-PCR analysis.
Assay [10] has as its system MSC. Put plainly: Induction of adipogenesis in human bone marrow MSC assessed as adiponectin production after 14 days by ELISA in IDX condition.

As to `NCCNC(=O)c1ncsc1-c1cccc(F)c1`, in [1], the Activity is 49%. Further, the result with MSC [2] was Active.
With `NNC(N)=O`, in the assay on MSC [3], the result was inactive.
Take `N[C@@H]1C[C@H]1c1ccccc1.N[C@H]1C[C@@H]1c1ccccc1` (racemic) [TRANYLCYPROMINE]: the Activity in assay [1] was 79%.
Turning to `COc1ccc(Cl)cc1C(=O)NCCc1ccc(S(=O)(=O)NC(=O)NC2CCCCC2)cc1` [GLYBURIDE], the result with MSC [4], in the assay with MSC [5], with MSC [6], in the assay with MSC [7], in the assay with MSC [8] and in the assay with MSC [9] was Active. The Activity in [1] is 134%.
As for `O=C(NCCN1CCOCC1)c1ccc(Cl)cc1` [MOCLOBEMIDE], the Activity was 146% in assay [1] and “Dose-dependent effect” in the assay with MSC [10].
`C#CCN(C)Cc1ccccc1` [PARGYLINE]: the Activity in [1] was found to be 54%. Besides, in the assay on MSC [2], the outcome was Active.
Regarding `NNCCc1ccccc1` [PHENELZINE], the Activity in assay [1] was 85%.
In the case of `C#CCN(C)[C@H](C)Cc1ccccc1` [SELEGILINE], the Activity in assay [1] is 105%; in the assay with MSC [10] it was “Dose-dependent effect”.
